Laboratory results taken from patent US20240002374A1, “5-MEMBERED HETEROARYLAMINOSULFONAMIDES FOR TREATING CONDITIONS MEDIATED BY DEFICIENT CFTR ACTIVITY” (Genzyme Corporation, priority 2019, published 2024).

Molecular target: T1, CFTR (primary human bronchial epithelial cells from a ΔF508 homozygous CF donor, CF-HBE cells) (Homo sapiens, UniProt P13569, DEL508-508)
T1 construct: Primary human bronchial epithelial cells from a ΔF508 homozygous CF donor; host or cells: primary human bronchial epithelial cells (CF-HBE) from a ΔF508 homozygous CF donor
Assay: TECC24 recording of CFTR-mediated transepithelial chloride transport (TECC24 AUC fold over DMSO @ 3 μM)
Format: cell-based
Settings: 3 uM test agent; CF-HBE cells (ΔF508 homozygous) incubated 48 h; ratio of test agent AUC of forskolin-stimulated IEQ to vehicle (DMSO) AUC
Procedure: Example 510: TECC24 AUC Fold Over DMSO @ 3 μM
The effects of a test agent on CFTR-mediated transepithelial chloride transport was measured using TECC24 recording analysis. Test agents were solubilized in DMSO. Solubilized test agents were mixed with incubation medium containing DMEM/F12, Ultroser G (2%; Crescent Chemical, catalog #67042), Hyclone Fetal Clone H (2%; GE Healthcare, catalog #SH30066.02), bovine brain extract (0.25%; Lonza, catalog #CC-4098), insulin (2.5 μg/mL), IL-13 (10 ng/mL), hydrocortisone (20 nM), transferrin (2.5 μg/mL), triiodothyronine (500 nM), ethanolamine (250 nM), epinephrine (1.5 μM), phosphoethanolamine (250 nM), and retinoic acid (10 nM). Primary human bronchial epithelial cells from a ΔF508 homozygous CF donor (CF-HBE cells; from University of North Carolina Cystic Fibrosis Tissue Procurement Center), grown on Transwell HTS 24-well cell culture inserts (Costar, catalog #3378), were exposed to test agents or controls dissolved in incubation medium. The CF-HBE cells were cultured at 36.5° C. for 48 h before TECC24 recordings were performed in the presence or absence of test agent, a positive control or vehicle (DMSO).
Following incubation, the transwell cell culture inserts containing the test agent or control-treated CF-HBE cells were loaded onto a TECC24 apparatus (TECC v7 or MTECC v2; EP Design) to record the transepithelial voltage (VT) and resistance (TEER) using 4 AgCl electrodes per well configured in current-clamp mode. The apical and basolateral bath solutions both contained (in mM) 140 NaCl, 5 KCl, 2 CaCl2), 1 MgCl2, 10 Hepes, and 10 glucose (adjusted to pH 7.4 with NaOH) […]. To inhibit basal Na+ absorption, the ENaC inhibitor benzamil (10 μM) was added to the bath. Then, the adenylate cyclase activator, forskolin (10 μM), was added to the bath to activate CFTR. The forskolin-stimulated Cl− transport was halted by addition of bumetanide (20 μM), an inhibitor of the basolateral chloride co-transporter NKCC1, to the bath to confirm that the detected signal was chloride dependent. VT and TEER recordings were digitally acquired at routine intervals using TECC or MTECC software (EP Design). VT and TEER were transformed into equivalent transepithelial Cl− current (IEQ), and the Area Under the Curve (AUC) of the IEQ time course between forskolin and bumetanide addition is generated using Excel (Microsoft). Efficacy is expressed as the ratio of the test agent AUC divided by vehicle AUC. EC50s based on AUC are generated using the non-linear regression log(agonist) vs. response function in Prism software (GraphPad) with Hill Slope fixed=1.
If a test agent increased the AUC of the forskolin-stimulated IEQ relative to vehicle in CF-HBE cells, and this increase was inhibited by bumetanide, then the test agent was considered a CFTR corrector.

T1 sequence (P13569 with tags, fused parts or gaps DEL508-508): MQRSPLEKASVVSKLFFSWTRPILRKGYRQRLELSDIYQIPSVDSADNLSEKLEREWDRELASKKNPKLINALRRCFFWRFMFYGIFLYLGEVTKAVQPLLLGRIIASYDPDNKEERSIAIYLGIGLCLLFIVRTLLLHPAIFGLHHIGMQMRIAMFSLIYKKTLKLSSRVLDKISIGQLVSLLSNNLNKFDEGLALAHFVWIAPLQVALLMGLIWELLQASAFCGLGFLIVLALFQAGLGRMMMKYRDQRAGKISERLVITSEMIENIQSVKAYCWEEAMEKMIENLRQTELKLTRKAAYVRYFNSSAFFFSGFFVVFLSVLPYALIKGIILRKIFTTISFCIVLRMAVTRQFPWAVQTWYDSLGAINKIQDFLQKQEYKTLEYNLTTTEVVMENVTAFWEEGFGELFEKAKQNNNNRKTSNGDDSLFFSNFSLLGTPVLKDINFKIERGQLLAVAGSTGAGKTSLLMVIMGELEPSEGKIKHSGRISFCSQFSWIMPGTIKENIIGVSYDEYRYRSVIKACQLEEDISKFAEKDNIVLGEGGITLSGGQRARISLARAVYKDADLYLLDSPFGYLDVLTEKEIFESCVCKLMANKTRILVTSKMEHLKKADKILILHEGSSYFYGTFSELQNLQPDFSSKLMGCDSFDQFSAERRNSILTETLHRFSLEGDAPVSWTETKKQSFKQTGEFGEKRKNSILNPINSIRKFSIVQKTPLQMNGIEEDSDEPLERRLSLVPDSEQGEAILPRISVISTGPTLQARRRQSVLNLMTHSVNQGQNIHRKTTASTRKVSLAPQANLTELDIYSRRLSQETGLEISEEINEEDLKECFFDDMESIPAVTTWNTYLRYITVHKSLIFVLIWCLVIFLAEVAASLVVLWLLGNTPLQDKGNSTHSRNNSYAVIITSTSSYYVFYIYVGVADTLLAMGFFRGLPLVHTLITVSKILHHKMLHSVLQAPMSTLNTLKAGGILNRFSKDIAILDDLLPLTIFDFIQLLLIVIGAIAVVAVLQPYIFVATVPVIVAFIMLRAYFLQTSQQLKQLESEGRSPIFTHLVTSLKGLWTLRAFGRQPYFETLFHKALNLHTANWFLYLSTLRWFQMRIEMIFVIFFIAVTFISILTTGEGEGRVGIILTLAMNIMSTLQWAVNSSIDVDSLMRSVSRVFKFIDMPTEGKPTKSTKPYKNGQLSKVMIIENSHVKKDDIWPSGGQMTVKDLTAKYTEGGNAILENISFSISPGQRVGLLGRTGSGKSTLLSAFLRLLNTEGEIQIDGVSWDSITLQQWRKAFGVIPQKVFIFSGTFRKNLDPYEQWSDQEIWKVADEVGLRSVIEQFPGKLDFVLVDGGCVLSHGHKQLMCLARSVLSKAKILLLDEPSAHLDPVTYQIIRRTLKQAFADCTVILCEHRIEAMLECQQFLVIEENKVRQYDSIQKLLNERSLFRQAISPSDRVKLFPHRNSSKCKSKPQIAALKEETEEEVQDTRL

SMILES	TECC AUC vs. DMSO @ 3 uM
Nc1cccc(S(=O)(=O)Nc2nc(-c3ccc(C(F)(F)F)cc3)c(-c3cc(F)cc(O[C@H]4CCC(OC(F)(F)F)C4)c3)s2)c1 (single isomer, unassigned) [Example 43A]	B (“B” refers to AUC 2-5)
Nc1cccc(S(=O)(=O)Nc2nc(-c3ccc(C(F)(F)F)cc3)c(-c3cc(F)cc(O[C@@H]4CCC(OC(F)(F)F)C4)c3)s2)c1 (single isomer, unassigned) [Example 43B]	A (“A” refers to AUC > 5)
O=S(=O)(Nc1nc(-c2ccccc2C(F)(F)F)c(-c2cccc([C@H]3CC[C@@H](OC(F)(F)F)C3)c2)s1)c1ccccc1 (single isomer, unassigned) [Example 44A1]	B (“B” refers to AUC 2-5)
O=S(=O)(Nc1nc(-c2ccccc2C(F)(F)F)c(-c2cccc([C@H]3CC[C@H](OC(F)(F)F)C3)c2)s1)c1ccccc1 (single isomer, unassigned) [Example 44A2]	C (“C” refers to AUC < 2)
O=S(=O)(Nc1nc(-c2ccccc2C(F)(F)F)c(-c2cccc([C@@H]3CC[C@@H](OC(F)(F)F)C3)c2)s1)c1ccccc1 (single isomer, unassigned) [Example 44B1]	B (“B” refers to AUC 2-5)
O=S(=O)(Nc1nc(-c2ccccc2C(F)(F)F)c(-c2cccc([C@@H]3CC[C@H](OC(F)(F)F)C3)c2)s1)c1ccccc1 (single isomer, unassigned) [Example 44B2]	C (“C” refers to AUC < 2)
Cc1nn(C)cc1S(=O)(=O)Nc1nc(-c2ccccc2C(F)(F)F)c(-c2cccc([C@H]3CC[C@@H](OC(F)(F)F)C3)c2)s1 (single isomer, unassigned) [Example 45A1]	B (“B” refers to AUC 2-5)
Cc1nn(C)cc1S(=O)(=O)Nc1nc(-c2ccccc2C(F)(F)F)c(-c2cccc([C@H]3CC[C@H](OC(F)(F)F)C3)c2)s1 (single isomer, unassigned) [Example 45A2]	B (“B” refers to AUC 2-5)
Cc1nn(C)cc1S(=O)(=O)Nc1nc(-c2ccccc2C(F)(F)F)c(-c2cccc([C@@H]3CC[C@H](OC(F)(F)F)C3)c2)s1 (single isomer, unassigned) [Example 45B1]	A (“A” refers to AUC > 5)
Cc1nn(C)cc1S(=O)(=O)Nc1nc(-c2ccccc2C(F)(F)F)c(-c2cccc([C@@H]3CC[C@@H](OC(F)(F)F)C3)c2)s1 (single isomer, unassigned) [Example 45B2]	C (“C” refers to AUC < 2)
Nc1cccc(S(=O)(=O)Nc2nc(-c3ccccc3C(F)(F)F)c(-c3cccc([C@H]4CC[C@@H](OC(F)(F)F)C4)c3)s2)c1F (single isomer, unassigned) [Example 47A1]	C (“C” refers to AUC < 2)
Nc1cccc(S(=O)(=O)Nc2nc(-c3ccccc3C(F)(F)F)c(-c3cccc([C@H]4CC[C@H](OC(F)(F)F)C4)c3)s2)c1F (single isomer, unassigned) [Example 47A2]	C (“C” refers to AUC < 2)
Cc1cccc(C)c1-c1nc(NS(=O)(=O)c2ccccc2)sc1-c1cc(F)cc(OCC(C)(C)C)c1 [Example 1, N-(4-(2,6-Dimethylphenyl)-5-(3-fluoro-5-(neopentyloxy)phenyl)thiazol-2-yl)benzenesulfonamide]	A (“A” refers to AUC > 5)
Cc1cccc(C(F)(F)F)c1-c1nc(NS(=O)(=O)c2ccccc2)sc1-c1cc(F)cc(OCCC(C)(C)C)c1 [Example 2, N-(5-(3-(3,3-Dimethylbutoxy)-5-fluorophenyl)-4-(2-methyl-6-(trifluoromethyl)phenyl)thiazol-2-yl)benzenesulfonamide]	A (“A” refers to AUC > 5)
CC(C)c1ccccc1-c1nc(NS(=O)(=O)c2ccccc2)sc1-c1cc(F)cc(OCCC(C)(C)C)c1 [Example 3, N-(5-(3-(3,3-Dimethylbutoxy)-5-fluorophenyl)-4-(2-isopropylphenyl)thiazol-2-yl)benzenesulfonamide]	A (“A” refers to AUC > 5)
CC(C)Oc1ccccc1-c1nc(NS(=O)(=O)c2ccccc2)sc1-c1cccc(OCC(C)(C)C)c1 [Example 4, N-(4-(2-Isopropoxyphenyl)-5-(3-(neopentyloxy)phenyl)thiazol-2-yl)benzenesulfonamide]	B (“B” refers to AUC 2-5)
CC(Oc1cc(F)ccc1-c1nc(NS(=O)(=O)c2ccn(C)n2)sc1-c1cc(F)cc(OCCC(C)(C)C)c1)C(F)(F)F (centres unmarked) [Example 5, N-(5-(3-(3,3-Dimethylbutoxy)-5-fluorophenyl)-4-(4-fluoro-2-((1,1,1-trifluoropropan-2-yl)oxy)phenyl)thiazol-2-yl)-1-methyl-1H-pyrazole-3-sulfonamide]	B (“B” refers to AUC 2-5)
Cc1cccc(C)c1-c1nc(NS(=O)(=O)c2cn(C)nc2C)sc1-c1cccc(OCC(C)(C)C(F)(F)F)c1 [Example 6, N-(4-(2,6-Dimethylphenyl)-5-(3-(3,3,3-trifluoro-2,2-dimethylpropoxy)phenyl)thiazol-2-yl)-1,3-dimethyl-1H-pyrazole-4-sulfonamide]	B (“B” refers to AUC 2-5)
Cc1cccc(C)c1-c1nc(NS(=O)(=O)c2cccc(N)c2)sc1-c1cc(F)cc(OCCC(C)(C)C)c1 [Example 7, 3-Amino-N-(5-(3-(3,3-dimethylbutoxy)-5-fluorophenyl)-4-(2,6-dimethylphenyl)thiazol-2-yl)benzenesulfonamide]	A (“A” refers to AUC > 5)
CC(C)(C)CCOc1cccc(-c2sc(NS(=O)(=O)c3cccc(N)c3)nc2-c2ccccc2C(F)(F)F)c1 [Example 8, 3-Amino-N-[5-[3-(3,3-dimethylbutoxy)phenyl]-4-[2-(trifluoromethyl)phenyl]thiazol-2-yl]benzenesulfonamide]	A (“A” refers to AUC > 5)
CC(C)(C)CCOc1cc(F)cc(-c2sc(NS(=O)(=O)c3cccc(N)c3)nc2-c2ccc(C(F)(F)F)cc2)c1 [Example 9, 3-Amino-N-(5-(3-(3,3-dimethylbutoxy)-5-fluorophenyl)-4-(4-(trifluoromethyl)phenyl)thiazol-2-yl)benzenesulfonamide]	B (“B” refers to AUC 2-5)
CC(C)(C)CCOc1cccc(-c2sc(NS(=O)(=O)c3cccc(N)c3)nc2-c2ccc(C(F)(F)F)cc2)c1 [Example 10, 3-Amino-N-(5-(3-(3,3-dimethylbutoxy)phenyl)-4-(4-(trifluoromethyl)phenyl)thiazol-2-yl)benzenesulfonamide]	A (“A” refers to AUC > 5)
CC(C)c1ccccc1-c1nc(NS(=O)(=O)c2cccc(N)c2)sc1-c1cc(F)cc(OCCC(C)(C)C)c1 [Example 11, 3-Amino-N-(5-(3-(3,3-dimethylbutoxy)-5-fluorophenyl)-4-(2-isopropylphenyl)thiazol-2-yl)benzenesulfonamide]	A (“A” refers to AUC > 5)
Cc1cccc(C)c1-c1nc(NS(=O)(=O)c2cc(N)ccc2F)sc1-c1ccc(F)c(OCC(C)(C)C(F)(F)F)c1 [Example 12, 5-Amino-N-(4-(2,6-dimethylphenyl)-5-(4-fluoro-3-(3,3,3-trifluoro-2,2-dimethylpropoxy)phenyl)thiazol-2-yl)-2-fluorobenzenesulfonamide]	A (“A” refers to AUC > 5)
Cc1cccc(C)c1-c1nc(NS(=O)(=O)c2cccc(NC3CC(C)(O)C3)c2)sc1-c1cccc(OCC(C)(C)C(F)(F)F)c1 (centres unmarked) [Example 13, N-(4-(2,6-Dimethylphenyl)-5-(3-(3,3,3-trifluoro-2,2-dimethylpropoxy)phenyl)thiazol-2-yl)-3-((3-hydroxy-3-methylcyclobutyl)amino)benzenesulfonamide]	A (“A” refers to AUC > 5)
Cc1cccc(C(F)(F)F)c1-c1nc(NS(=O)(=O)c2cccc(N)c2)sc1-c1cccc(OCCC(C)(C)C)c1 [Example 14, 3-Amino-N-(5-(3-(3,3-dimethylbutoxy)phenyl)-4-(2-methyl-6-(trifluoromethyl)phenyl)thiazol-2-yl)benzenesulfonamide]	A (“A” refers to AUC > 5)
